According to patent US20260034277A1, “SYSTEMS AND METHODS FOR PATHOGEN INACTIVATION OF BLOOD PRODUCTS” (Cerus Corporation, priority 2024, published 2026):

Tests used:
Assay type in all cases: cell-based
[1] = test system: Klebsiella pneumoniae; test: Klebsiella pneumoniae inactivation in platelet units with amotosalen/UVA, colony forming unit assay
Description: A study was performed to evaluate pathogen inactivation with treatment profiles from Example 1 and the bacterium Klebsiella pneumoniae. Units of platelets, prepared in 47% plasma/53% PAS at a volume of 250 mL (except the 70 μM study group at a volume of 200 mL), were inoculated with an overnight culture of Klebsiella pneumoniae (targeting the final concentration in unit of approximately 6 log CFU/mL) and dosed with the target amotosalen concentration (40 μM, 45 μM, 55 μM or 70 μM) in an illumination container of an INTERCEPT® Blood System processing set. The units were mixed well, and samples were collected from each unit prior to UV illumination to determine pre-treatment bacterial titers and amotosalen concentration. The Klebsiella-contaminated platelet units were then subjected to a UVA light dose of 3.8 J/cm^2 (3.2 J/cm^2 for the 200 mL units) using an illuminator with LED light sources having peak wavelength between 340-350 nm. Samples were collected post-illumination and both the pre- and post-UVA illumination samples were analyzed by standard colony forming unit assay to determine the level of bacterial inactivation.
A similar study was performed with the bacterium Klebsiella pneumoniae. Four units of platelets in 47% plasma/53% PAS at a volume of 450 mL were inoculated in a 1.3 L illumination container with an overnight culture of Klebsiella pneumoniae at a target input pathogen concentration of approximately 8 log CFU/mL per unit and dosed with S-59 to achieve a target concentration of 55 μM. Samples were collected pre- and post-UVA illumination with a light dose of 6.3 J/cm^2 for determination of bacterial titers by standard colony forming unit assay and S-59 concentration by HPLC.

[2] = test system: adenovirus type 5 (Ad5); test: Adenovirus type 5 inactivation in platelet units with amotosalen/UVA, plaque assay; settings: for Log Reduction / Post-UVA PFU/mL: 250 mL platelets, UVA 3.8 J/cm^2
Description: Another study was performed evaluating pathogen inactivation with treatment profiles from Example 1 and the non-enveloped virus adenovirus type 5 (Ad5). Units of platelets, prepared in 47% plasma/53% PAS at a volume of 250 mL, were inoculated with Ad5 (targeting the final concentration in unit of approximately 4.5 or 6.5 log PFU/mL), and dosed with the target amotosalen concentration (45 μM or 50 μM) in an illumination container of an INTERCEPT® Blood System processing set. The units were mixed well, and samples were collected from each unit prior to UV illumination to determine pre-treatment viral titers and amotosalen concentration. The Ad5-contaminated platelet units were then subjected to a UVA light dose of 3.8 J/cm^2 using an illuminator with LED light sources having peak wavelength between 340-350 nm. Samples were collected post-illumination and both the pre- and post-UVA illumination samples were analyzed by standard plaque assay to determine the level of virus inactivation.

[3] = test system: bluetongue virus (BTV); test: Bluetongue virus inactivation in platelet units with amotosalen/UVA, plaque assay
Description: A study was performed to evaluate pathogen inactivation with treatment profiles from Example 1 and the non-enveloped virus bluetongue virus (BTV). Units of platelets, prepared in 47% plasma/53% PAS at a volume of 250 mL, were inoculated with BTV (targeting the final concentration in unit of approximately 4.5 log PFU/mL), and dosed with the target amotosalen concentration (40 μM, 50 μM, 60 μM, or 70 μM) in an illumination container of an INTERCEPT® Blood System processing set. The units were mixed well, and samples were collected from each unit prior to UV illumination to determine pre-treatment viral titers and amotosalen concentration. The BTV-contaminated platelet units were then subjected to a UVA light dose of 3.8 J/cm^2 using an illuminator with LED light sources having peak wavelength between 340-350 nm. Samples were collected post-illumination, and both the pre- and post-UVA illumination samples were analyzed by standard plaque assay to determine the level of virus inactivation.
Pathogen inactivation of both viruses and bacteria was also tested using dosing device system-based quantized dosing of amotosalen and the treatment parameters described above. In one study, four units of platelets in 47% plasma/53% PAS at a higher 450 mL volume were inoculated in a 1.3 L illumination container with bluetongue virus (BTV) at a target pathogen input concentration of approximately 5.0 log PFU/mL per unit and dosed with amotosalen (S-59) to achieve at a target concentration of 55 μM. The units were mixed, and samples were collected from each unit prior to UV illumination to determine pre-treatment viral titers and S-59 concentration. The BTV-contaminated platelet units were then subjected to a UVA light dose of 6.3 J/cm^2 using an illuminator with LED light sources having peak wavelength between 340-350 nm. Samples were collected post-illumination, and both the pre- and post-UVA illumination samples were analyzed by standard plaque assay to determine the level of virus inactivation and by HPLC to determine the S-59 concentration.

[4] = device-dosed S-59 target 55 μM, 450 mL platelets, 1.3 L container, UVA 6.3 J/cm^2
[5] = target S-59 40 μM, 250 mL platelets, UVA 3.8 J/cm^2
[6] = target S-59 45 μM, 250 mL platelets, UVA 3.8 J/cm^2
[7] = target S-59 55 μM, 250 mL platelets, UVA 3.8 J/cm^2
[8] = target S-59 70 μM, 200 mL platelets, UVA 3.2 J/cm^2
[9] = target S-59 45 μM, Pre-UVA 4.1 Log PFU/mL
[10] = target S-59 50 μM, Pre-UVA 4.5 Log PFU/mL
[11] = target S-59 50 μM, Pre-UVA 6.7 Log PFU/mL
[12] = target S-59 50 μM, 250 mL platelets, UVA 3.8 J/cm^2
[13] = target S-59 60 μM, 250 mL platelets, UVA 3.8 J/cm^2
[14] = target S-59 70 μM, 250 mL platelets, UVA 3.8 J/cm^2

## Cc1oc2c(C)c3oc(=O)cc(C)c3cc2c1COCCN [S-59, 3-(2-aminoethoxymethyl)-2,5,9-trimethylfuro[3,2-g]chromen-7-one]
[1]; [4]
  Post-UVA titer: 0.3 ± 0.4 cfu/mL
[1]; each of the four target amotosalen input concentrations (40, 45, 55, 70 μM)
  bacterial inactivation (log reduction): greater than 5 logs
[1]; [5]
  Log Reduction: 5.6 ± 0.8 log
  Post-UVA CFU/mL: 6.7 ± 11.5 CFU/mL
[1]; [6]
  Log Reduction: 5.9 ± 0.0 log
  Post-UVA CFU/mL: 0.2 ± 0.1 CFU/mL
[1]; [7]
  Log Reduction: 6.0 ± 0.1 log
  Post-UVA CFU/mL: 0.4 ± 0.5 CFU/mL
[1]; [8]
  Log Reduction: ≥6.1 ± 0.1 log
  Post-UVA CFU/mL: 0.03 ± 0.1 CFU/mL
[2]; each of the 45 μM or 50 μM target amotosalen input concentrations
  viral inactivation: greater than 4 logs
[2]; [9]
  Log Reduction: >4.1 ± 0.2 log
  Post-UVA PFU/mL: 0.0 ± 0.0 PFU/mL
[2]; [10]
  Log Reduction: 4.5 ± 0.0 log
  Post-UVA PFU/mL: 0.0 ± 0.0 PFU/mL
[2]; [11]
  Log Reduction: ≥6.3 ± 0.5 log
  Post-UVA PFU/mL: ≤6.9 ± 12.7 PFU/mL
[3]; [4]
  Log Reduction: 5.0±0.4 Log (pfu/mL)
  Post-UVA titer: 0.7 ± 0.6 pfu/mL
[3]; each of the four target amotosalen input concentrations (40, 50, 60, 70 μM)
  viral inactivation: greater than 4 logs
[3]; [5]
  Log Reduction: 4.4 ± 0.1 log
  Post-UVA PFU/mL: 0.3 ± 0.1 PFU/mL
[3]; [12]
  Log Reduction: 4.4 ± 0.4 log
  Post-UVA PFU/mL: 0.1 ± 0.1 PFU/mL
[3]; [13]
  Log Reduction: >4.6 ± 0.5 log
  Post-UVA PFU/mL: 0.02 ± 0.03 PFU/mL
[3]; [14]
  Log Reduction: 4.2 ± 0.1 log
  Post-UVA PFU/mL: 0.1 ± 0.2 PFU/mL
